According to ChEMBL document CHEMBL5653615 (J Biol Chem, 2013):

Columns and labels:
[1] = target: T1, Activin receptor type-1 (Homo sapiens) (UniProt Q04771); experiment: Inhibition of human ALK2 at 1.82 nM by HotSpot assay relative to control
T1 sequence (whole entry): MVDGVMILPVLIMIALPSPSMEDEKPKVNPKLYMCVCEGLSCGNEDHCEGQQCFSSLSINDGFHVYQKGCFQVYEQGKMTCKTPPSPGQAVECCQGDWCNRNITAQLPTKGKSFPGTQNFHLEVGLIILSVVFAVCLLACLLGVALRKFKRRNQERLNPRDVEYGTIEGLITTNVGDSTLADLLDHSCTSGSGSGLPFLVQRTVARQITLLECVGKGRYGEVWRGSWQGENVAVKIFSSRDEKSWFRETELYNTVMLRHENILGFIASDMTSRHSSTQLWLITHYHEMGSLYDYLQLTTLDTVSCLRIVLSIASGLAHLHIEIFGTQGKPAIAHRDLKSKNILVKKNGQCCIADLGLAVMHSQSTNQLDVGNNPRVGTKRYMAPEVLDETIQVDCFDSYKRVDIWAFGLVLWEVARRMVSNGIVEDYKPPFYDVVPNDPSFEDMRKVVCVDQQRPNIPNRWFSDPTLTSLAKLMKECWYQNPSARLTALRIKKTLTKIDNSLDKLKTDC

[2] = target: T2, G protein-coupled receptor kinase 3 (Homo sapiens) (UniProt P35626); experiment: Inhibition of human GRK3 at 1.82 nM by HotSpot assay relative to control
T2 sequence (whole entry): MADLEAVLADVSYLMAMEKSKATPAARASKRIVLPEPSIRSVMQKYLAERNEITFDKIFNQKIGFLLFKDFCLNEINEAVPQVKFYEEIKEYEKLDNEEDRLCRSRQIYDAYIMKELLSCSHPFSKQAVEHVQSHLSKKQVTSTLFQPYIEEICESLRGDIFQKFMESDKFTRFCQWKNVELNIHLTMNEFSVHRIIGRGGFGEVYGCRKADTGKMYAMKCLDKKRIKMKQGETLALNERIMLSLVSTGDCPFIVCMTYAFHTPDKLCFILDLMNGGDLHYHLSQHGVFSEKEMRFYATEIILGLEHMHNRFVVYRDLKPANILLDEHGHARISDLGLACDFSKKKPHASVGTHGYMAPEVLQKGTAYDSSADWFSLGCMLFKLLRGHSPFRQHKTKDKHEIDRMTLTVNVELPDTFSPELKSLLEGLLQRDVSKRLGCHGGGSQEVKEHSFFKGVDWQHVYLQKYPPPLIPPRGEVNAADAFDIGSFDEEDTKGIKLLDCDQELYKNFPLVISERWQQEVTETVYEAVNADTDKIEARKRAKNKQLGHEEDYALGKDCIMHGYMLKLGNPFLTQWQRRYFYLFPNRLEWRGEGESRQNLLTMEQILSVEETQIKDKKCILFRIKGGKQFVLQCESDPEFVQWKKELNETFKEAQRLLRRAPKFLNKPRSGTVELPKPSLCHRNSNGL

[3] = target: Serine/threonine-protein kinase 26 (Homo sapiens) (UniProt Q9P289); experiment: Inhibition of human MST4 at 1.82 nM by HotSpot assay relative to control
[4] = target: Serine/threonine-protein kinase PAK 4 (Homo sapiens) (UniProt O96013); experiment: Inhibition of human PAK4 at 1.82 nM by HotSpot assay relative to control
[5] = target: T3, Muscle, skeletal receptor tyrosine-protein kinase (Homo sapiens) (UniProt O15146); experiment: Inhibition of human MUSK at 1.82 nM by HotSpot assay relative to control
T3 sequence (whole entry): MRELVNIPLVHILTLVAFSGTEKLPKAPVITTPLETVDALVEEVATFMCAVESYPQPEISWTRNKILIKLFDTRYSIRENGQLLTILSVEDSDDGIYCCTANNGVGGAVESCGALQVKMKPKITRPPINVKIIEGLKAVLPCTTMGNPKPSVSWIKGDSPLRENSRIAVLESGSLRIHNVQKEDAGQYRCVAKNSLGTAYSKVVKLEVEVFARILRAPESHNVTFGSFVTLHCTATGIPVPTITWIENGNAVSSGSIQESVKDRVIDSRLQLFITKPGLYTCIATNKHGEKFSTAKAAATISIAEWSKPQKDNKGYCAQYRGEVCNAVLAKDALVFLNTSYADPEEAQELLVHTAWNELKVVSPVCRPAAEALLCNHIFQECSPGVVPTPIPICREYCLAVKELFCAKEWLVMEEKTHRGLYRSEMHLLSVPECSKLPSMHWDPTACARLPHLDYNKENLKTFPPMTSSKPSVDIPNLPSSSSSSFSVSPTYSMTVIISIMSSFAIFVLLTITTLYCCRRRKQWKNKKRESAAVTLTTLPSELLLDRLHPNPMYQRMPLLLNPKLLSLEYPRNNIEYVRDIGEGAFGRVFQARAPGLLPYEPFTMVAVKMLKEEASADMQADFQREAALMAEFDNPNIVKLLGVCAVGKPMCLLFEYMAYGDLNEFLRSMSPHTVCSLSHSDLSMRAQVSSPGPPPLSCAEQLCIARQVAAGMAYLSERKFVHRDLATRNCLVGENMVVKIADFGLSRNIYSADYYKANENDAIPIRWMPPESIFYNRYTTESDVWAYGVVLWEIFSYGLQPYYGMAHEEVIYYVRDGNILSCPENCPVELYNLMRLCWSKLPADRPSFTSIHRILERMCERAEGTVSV

[6] = target: Mitogen-activated protein kinase kinase kinase 7 (Homo sapiens) (UniProt O43318); settings: dose 1.82 nM
Description: Inhibition of human TAK1 at 1.82 nM by HotSpot assay relative to control

[7] = target: T4, Megakaryocyte-associated tyrosine-protein kinase (Homo sapiens) (UniProt P42679); experiment: Inhibition of human CTK at 1.82 nM by HotSpot assay relative to control
T4 sequence (whole entry): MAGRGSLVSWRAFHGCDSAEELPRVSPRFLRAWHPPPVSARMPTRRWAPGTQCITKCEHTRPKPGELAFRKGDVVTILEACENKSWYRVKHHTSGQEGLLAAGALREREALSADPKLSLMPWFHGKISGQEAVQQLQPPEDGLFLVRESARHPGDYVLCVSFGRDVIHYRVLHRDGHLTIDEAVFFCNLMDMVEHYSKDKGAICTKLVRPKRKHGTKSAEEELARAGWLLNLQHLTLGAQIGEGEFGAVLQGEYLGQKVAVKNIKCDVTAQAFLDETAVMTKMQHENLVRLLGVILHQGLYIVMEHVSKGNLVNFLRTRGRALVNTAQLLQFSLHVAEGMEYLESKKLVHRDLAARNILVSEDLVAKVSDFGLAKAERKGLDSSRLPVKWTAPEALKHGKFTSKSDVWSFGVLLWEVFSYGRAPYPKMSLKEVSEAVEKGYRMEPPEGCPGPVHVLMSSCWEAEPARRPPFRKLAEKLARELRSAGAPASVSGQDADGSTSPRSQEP

[8] = target: Cyclin-dependent kinase 2/cyclin E1 (Homo sapiens) (UniProt P24864+P24941); experiment: Inhibition of human CDK2/cyclin E at 18.6 nM by HotSpot assay relative to control; format: protein-complex assay

Serine/threonine-protein kinase PAK 4 (Homo sapiens), sequence (O96013 whole entry, looked up): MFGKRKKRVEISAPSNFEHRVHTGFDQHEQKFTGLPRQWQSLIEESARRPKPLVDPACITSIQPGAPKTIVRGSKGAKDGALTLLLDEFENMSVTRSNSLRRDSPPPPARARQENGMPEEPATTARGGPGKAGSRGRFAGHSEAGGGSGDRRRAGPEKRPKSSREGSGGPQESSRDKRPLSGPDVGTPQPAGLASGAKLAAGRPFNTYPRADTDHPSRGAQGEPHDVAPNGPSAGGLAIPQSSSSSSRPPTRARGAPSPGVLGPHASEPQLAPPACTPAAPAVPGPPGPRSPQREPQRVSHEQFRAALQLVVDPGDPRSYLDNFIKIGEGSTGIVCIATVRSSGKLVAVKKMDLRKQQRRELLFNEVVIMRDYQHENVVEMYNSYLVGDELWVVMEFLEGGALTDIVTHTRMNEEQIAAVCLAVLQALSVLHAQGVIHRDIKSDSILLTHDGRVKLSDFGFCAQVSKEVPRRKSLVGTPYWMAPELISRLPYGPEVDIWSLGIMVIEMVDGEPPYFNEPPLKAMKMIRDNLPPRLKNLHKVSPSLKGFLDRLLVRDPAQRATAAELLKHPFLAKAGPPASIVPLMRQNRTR
Mitogen-activated protein kinase kinase kinase 7 (Homo sapiens), sequence (O43318 whole entry, looked up): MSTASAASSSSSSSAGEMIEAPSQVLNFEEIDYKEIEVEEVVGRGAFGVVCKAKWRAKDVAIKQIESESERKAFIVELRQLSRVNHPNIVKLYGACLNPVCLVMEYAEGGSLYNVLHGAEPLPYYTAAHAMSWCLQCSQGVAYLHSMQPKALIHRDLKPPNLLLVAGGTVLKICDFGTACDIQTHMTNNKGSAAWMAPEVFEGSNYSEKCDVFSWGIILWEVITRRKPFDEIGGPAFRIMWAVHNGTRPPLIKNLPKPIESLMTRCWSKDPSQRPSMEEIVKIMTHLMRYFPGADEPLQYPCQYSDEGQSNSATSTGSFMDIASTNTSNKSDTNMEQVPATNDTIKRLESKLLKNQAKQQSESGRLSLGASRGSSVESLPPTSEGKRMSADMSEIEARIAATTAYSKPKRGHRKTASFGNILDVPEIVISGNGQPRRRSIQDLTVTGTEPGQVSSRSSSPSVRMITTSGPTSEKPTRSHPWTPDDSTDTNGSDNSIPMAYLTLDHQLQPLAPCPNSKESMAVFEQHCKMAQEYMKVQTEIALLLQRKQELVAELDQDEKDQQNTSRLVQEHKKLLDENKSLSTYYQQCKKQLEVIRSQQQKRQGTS
Serine/threonine-protein kinase 26 (Homo sapiens), sequence (Q9P289 2-416 limits assumed): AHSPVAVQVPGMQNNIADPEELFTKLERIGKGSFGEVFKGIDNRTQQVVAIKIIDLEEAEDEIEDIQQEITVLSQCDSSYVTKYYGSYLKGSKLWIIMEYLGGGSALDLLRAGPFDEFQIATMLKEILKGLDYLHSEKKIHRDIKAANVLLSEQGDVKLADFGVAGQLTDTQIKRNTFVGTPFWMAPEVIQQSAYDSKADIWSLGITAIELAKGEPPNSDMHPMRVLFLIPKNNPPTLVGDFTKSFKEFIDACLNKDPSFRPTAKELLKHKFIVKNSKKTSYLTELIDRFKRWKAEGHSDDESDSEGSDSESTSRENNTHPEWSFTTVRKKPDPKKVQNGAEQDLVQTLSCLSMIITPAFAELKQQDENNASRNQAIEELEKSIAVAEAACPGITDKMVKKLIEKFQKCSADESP

Compound | inhibition [1] [%] | inhibition [2] [%] | inhibition [3] [%] | inhibition [4] [%] | inhibition [5] [%] | inhibition [6] [%] | inhibition [7] [%] | inhibition [8] [%]
C[C@@]1(C(=O)Nc2ccc(F)nc2)CCCN1c1nc(Nc2cc(C3CC3)n[nH]2)c2cccn2n1 | 5.9 | -5.67 | -1.09 | -3.15 | -0.39 | 3.35 | -1.93 | –
C[C@]1(O)C[C@@H](c2nc(-c3ccc4ccc(-c5ccccc5)nc4c3)c3c(N)nccn32)C1 | – | – | – | – | – | – | – | 2.03
